System: HCC1954 breast cancer cells (HER2+ cell line)
Assay: Antitumor test, subcutaneous HCC1954 breast cancer xenograft, tumor growth inhibition
Type: in vivo, CB17-SCID mice
Conditions: AZD4573 monotherapy in the HCC1954 model
Procedure: Tumor volume was monitored via caliper measurements, and mice were randomized based on mean tumor size. […] All AZD4573 doses were administered IP, 2 hours apart. A BID regimen was used for 10 mg/kg dose, and TID was used for 5 mg/kg dose. AZD4573 dosing was given weekly thereafter for a total of 3 cycles.
Data represents change in tumor volume over time for treatment groups.

CC(=O)N[C@@H]1CCC[C@H](C(=O)Nc2cc(-c3cnn4c3CC(C)(C)C4)c(Cl)cn2)C1 [AZD4573, (1S,3R)-3-acetamido-N-(5-chloro-4-(5,5-dimethyl-5,6-dihydro-4H-pyrrolo[1,2-b]pyrazol-3-yl)pyridin-2-yl)cyclohexanecarboxamide]
tumor growth control: minimal tumor growth control
